How the values were obtained:
β-galactosidase [1] = molecular target: T1, β-galactosidase (Escherichia coli, UniProt P00722); test: Labeling of lacZ positive fibroblast cells with a β-galactosidase substrate; type: cell-based
T1 construct: host or cells: CRE BAG 2 cells (NIH/3T3 cells transformed with a retrovirus containing lacZ)
Procedure: (§1) 1.1 Cell Lines: NIH/3T3 cells (lacZ negative) and CRE BAG 2 cells (3T3 cells transformed with a retrovirus containing the lacZ gene) are employed for cellular assays. Both cell lines can be obtained from American Type Culture Collection Co., Rockville, Md. The cells are grown in a humidified atmosphere of 5% CO2 in Dulbecco's modified Eagle's medium supplemented with 10% calf serum, 50 μg/mL gentamicin, 300 μg/mL L-glutamine and 10 mM HEPES pH 7.4.
1.2 Stock Solution of the Labeling Reagent: The β-galactosidase substrate 1h is dissolved in DMSO to get a 10 mM stock solution.
(§2) 1.3 Working Medium: 100 μL of the dye stock solution is added to 10 mL of fresh culture medium to prepare a "working medium" containing 100 μM of the substrate 1h. This medium is then filter-sterilized by passing through an Acrodisc™ filter (0.45μ pore size).
1.4 Staining and Examination of Cells: Cells grown on coverslips are transferred to the working medium and incubated at 37° C. under normal culture conditions. Cells are examined at the desired time for their fluorescence under a Zeiss microscope equipped with a Hoechst filter set (typically excitation at about 360 nm and emission past 480 nm). […] After 6 hours, the fluorescence intensity of stained CRE BAG 2 cells reaches its highest level.

[2] = tested on: NIH/3T3 cells and CRE BAG 2 cells; test: Cytotoxicity and cellular retention in fibroblast cells; type: cell-based
Procedure: as §1, §2

β-galactosidase [3] = test: Labeling of lacZ positive yeast cells; type: cell-based, Yeast strain EG 123; details: 200 μM staining solution mixed with equal volume of cells, after 300 μM chloroquine
Procedure: 2.1 Yeast Strain: Yeast strain EG 123 is transformed with plasmid pLGΔ-312S, which carries the yeast CYC1 promotor region and initiation codon fused in frame with the lacZ gene. The cells are grown in a synthetic medium selecting for plasmid maintenance to a density of about 10^7 cells per mL. Cells are collected by centrifugation and resuspended in Z buffer to obtain a cell suspension. Z buffer contains 0.2% β-mercaptoethanol which improves the permeability of both the yeast cell wall and the plasma membrane. Nontransformed yeast cells are used as the control.
2.2 Staining Solution: The galactosidase substrate (1h) is first dissolved in DMSO to get 10 mM stock solution. This solution is diluted 1:50 with distilled water to obtain a 200 μM staining solution.
2.3 Staining and Examination of Cells: To inhibit endogenous vacuolar galactosidase activity, yeast cells are first preincubated with 300 μM chloroquine for 20 minutes at room temperature, then mixed with an equal volume of the substrate-containing staining solution. Most of the lacZ positive cells become fluorescent within 15 minutes. A crystalline precipitate can be observed in the cells, while the lacZ negative cells remain unstained for at least 2 hours.

[4] = tested on: epidermal growth factor (EGF) receptors; test: Detection of a growth factor receptor in A431 cells; type: cell-based, human; details: fluorescence microscope; substrate 0.1 mM 15 minutes, or 50 ng/mL direct conjugate
Procedure: 1 ). Cells. Dish-cultured A431 cells (American Type Culture Collection, Rockville, Md.) are digested with trypsin and transferred to glass cover-slips. The cells are subcultured and stabilized for 24 to 48 hours before use.
2). Staining. The slips are transferred into a staining dish, washed with PBS, rinsed in a 0.5% formaldehyde PBS solution for 15 minutes at room temperature, washed with PBS, then incubated in 50 ng/mL biotinylated epidermal growth factor (biotin-EGF; Molecular Probes, Inc., Eugene, Oreg.) in PBS solution for 30 minutes at room temperature. The slips are washed with PBS buffer, then incubated with 1 μg/mL streptavidin alkaline phosphatase (Molecular Probes, Inc.) in a reaction buffer (0.1M TRIS pH 7.8 containing 0.15M NaCl, 50 mM MgCl2 and 0.1 mM ZnCl2) for 30 minutes at room temperature. The slips are washed with the reaction buffer, then incubated with 0.1 mM of a precipitating alkaline phosphatase substrate in the reaction buffer for 15 minutes at room temperature. The substrate solution is filtered through a 0.2 μM filter (Millipore, Bedford, Mass.) before use.
3). Detection. The slips are washed with PBS then examined under a Zeiss fluorescence microscope equipped with suitable filters (typically excitation at about 360 nm and emission past 480 nm). […] Alternatively the fluorescent labeled cells can be detected and the intensity quantitated by flow cytometry.

T1 sequence (P00722 whole entry): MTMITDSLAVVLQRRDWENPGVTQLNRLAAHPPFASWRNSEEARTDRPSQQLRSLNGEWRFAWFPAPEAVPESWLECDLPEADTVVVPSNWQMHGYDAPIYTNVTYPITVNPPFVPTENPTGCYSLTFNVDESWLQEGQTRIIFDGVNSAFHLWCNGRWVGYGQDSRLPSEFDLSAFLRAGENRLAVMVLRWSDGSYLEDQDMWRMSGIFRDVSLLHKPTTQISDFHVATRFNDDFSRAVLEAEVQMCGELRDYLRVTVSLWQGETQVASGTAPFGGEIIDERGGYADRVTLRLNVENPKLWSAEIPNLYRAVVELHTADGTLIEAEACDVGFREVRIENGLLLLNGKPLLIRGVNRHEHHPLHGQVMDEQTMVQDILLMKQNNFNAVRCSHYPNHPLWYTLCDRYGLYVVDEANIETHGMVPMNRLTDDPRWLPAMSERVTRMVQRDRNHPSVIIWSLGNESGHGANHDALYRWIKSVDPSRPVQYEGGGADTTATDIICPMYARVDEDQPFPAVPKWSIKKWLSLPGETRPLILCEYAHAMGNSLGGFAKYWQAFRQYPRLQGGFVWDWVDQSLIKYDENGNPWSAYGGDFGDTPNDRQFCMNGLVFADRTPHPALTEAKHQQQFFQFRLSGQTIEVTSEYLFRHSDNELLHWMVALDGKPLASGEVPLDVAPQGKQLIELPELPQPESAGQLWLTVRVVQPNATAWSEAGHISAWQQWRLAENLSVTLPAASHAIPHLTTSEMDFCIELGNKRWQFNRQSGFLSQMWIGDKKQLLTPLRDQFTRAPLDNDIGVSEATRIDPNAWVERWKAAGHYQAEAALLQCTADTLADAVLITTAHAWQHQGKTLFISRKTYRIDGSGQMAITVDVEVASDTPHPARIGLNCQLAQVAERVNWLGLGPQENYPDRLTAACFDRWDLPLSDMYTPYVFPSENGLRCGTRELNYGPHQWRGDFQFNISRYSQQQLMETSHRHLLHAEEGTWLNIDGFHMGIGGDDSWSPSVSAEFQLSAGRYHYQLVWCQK

Molecule | time at which fluorescence intensity of stained CRE BAG 2 cells reaches its highest level (β-galactosidase [1]; 100 μM working medium) | fluorescent staining of 3T3 cells (lacZ negative) (β-galactosidase [1]; 100 μM, 60 minutes, 37° C.) | fluorescent staining of lacZ positive CRE BAG 2 cells (β-galactosidase [1]; 100 μM, 60 minutes, 37° C.) | cytotoxicity [2] | cell morphology and population doubling time ([2]; 100 μM working medium, 24 hours) | time for which lacZ negative yeast cells remain unstained (β-galactosidase [3]) | time within which most lacZ positive yeast cells become fluorescent (β-galactosidase [3]) | fluorescence of stained fixed A431 cells [4]
O=c1[nH]c(-c2ccccc2O[C@@H]2O[C@H](CO)[C@H](O)[C@H](O)[C@H]2O)nc2ccccc12 [1h] | 6 h | not in the 3T3 cells | fluorescent spots can be observed in the cytoplasmic area | no cytotoxicity | look morphologically normal and have the same population doubling time as the control | at least 2 hours | ≤ 15 min | 
fluorescein EGF: direct fluorescent conjugate of epidermal growth factor (NSDSECPLSHDGYCLHDGVCMYIEALDKYACNCVVGYIGERCQYRDLKWWELR; Epidermal growth factor fluorescein label; UniProt P01133 971-1023, looked up) |  |  |  |  |  |  |  | extremely low visibility and very low photostability

Reference: patent US5443986A, “Enzymatic analysis using substrates that yield fluorescent precipitates” (Molecular Probes, Inc., priority 1993, dated 1995)
